Laboratory results reported in US7300764B2, “Method for identifying agonists and antagonists of the GPR45-like/GPR63 receptor” (Sanofi-Aventis Deutschland GmbH, priority 2002, dated 2007).

Legend:
[1] = target: T1, GPR45 like/GPR63 receptor (Homo sapiens, UniProt Q9BZJ6); assay: Cell growth assay in transfected CHO cells; type: cell-based; parameters: The PCR fragment with a length of 1,260 base pairs which was formed by the PCR described above was incorporated; expressed in transfected cells; host or cells: CHO cells, transient transfection with Lipofectamine; conditions: 1 μM S1P, 48 hours, Iscove's medium with 10% dialyzed fetal calf serum, average of 2 independent tests
Method: CHO cells were put in an amount of 8×10^4 cells into 35 mm plates. After 32 hours, the cells were transfected with 1 μg of the plasmid construct using Lipofectamine (Gibco). After a further 13 hours (time 0), the cells were washed with PBS and incubated in Iscove's medium which contained 10% dialyzed fetal calf serum for 48 hours (time 48), specifically in the presence or absence of 1 μM S1P (sphingosine 1-phosphate).
The number of cells at time 0 and time 48 was determined by counting. This was done by first treating the cells with trypsin and then suspending them in 1 ml of Iscove's. An amount of 100 μl of these cells was diluted in 10 ml of buffer and counted in a cell counter, e.g. in the Casy Cellcounter TT (Cell Counter und Analysesystem, Schärfe, Reutlingen).
An amount of 8×10^4 CHO cells was seeded onto 35 mm plates. The cells were transfected after 32 hours with 1 μg of DNA of the vector construction. After 13 hours, the cells were washed once with PBS and incubated in Iscove's medium containing 10% dialyzed fetal calf serum in the presence or absence of 1 μM S1P for a further 48 hours.

[2] = target: T1, GPR45 like/GPR63 receptor; assay: FLIPR assay, stimulation of intracellular Ca2+ release in transfected CHO cells; type: cell-based; parameters: The PCR fragment with a length of 1,260 base pairs which was formed by the PCR described above was incorporated; expressed in transfected cells; host or cells: CHO-K1 cells, transient transfection with Lipofectamine; conditions: final concentration of 1 μM; CHO cells expressing GPR45 like/GPR63 receptor and G protein α subunit delta 6qi4mgr
Method: CHO-K1 cells were cultivated in basal Iscove's medium with further additions. Iscove's medium is commercially available from, for example, Biochrom, Berlin. The composition was described for the first time in N. N. Iscove and F. Melchers, Journal of Experimental Medicine 147, 923-933 (1978). 10% fetal bovine serum, 10 000 U/ml-10 000 μg/ml penicillin-streptomycin, gentamycin, and 2 mM L-glutamine were used as further additions to Iscove's medium. The cells were incubated at 37° C. with a 5% CO2 atmosphere.
About 2×10^5 CHO-K1 cells were seeded in 35 mm dishes for the transient transfection. After further incubation for about 24 hours and with the cells at about 50-80% confluence, the cells were transiently transfected with 1 μg of the plasmid DNA construct with the assistance of Lipofectamine (Gibco).
About 16 to 18 hours after the transfection, the CHO cells were put in an amount of about 80,000 cells per well in 96-well plates and incubated further for about 18-24 hours. […]
After the last washing step, 100 μl were left on the cells in each well. […] A 60 μM solution was kept ready on a 96-well microtiter plate. […]
The fluorescence was measured by a Fluorometric Imaging Plate Reader (FLIPR®, Molecular Devices, Sunnyvale, Calif.) for 1 min in intervals lasting 1 sec and for a further 2 min in 3-second intervals. […]

T1 sequence (Q9BZJ6 whole entry, the tested form may be a part): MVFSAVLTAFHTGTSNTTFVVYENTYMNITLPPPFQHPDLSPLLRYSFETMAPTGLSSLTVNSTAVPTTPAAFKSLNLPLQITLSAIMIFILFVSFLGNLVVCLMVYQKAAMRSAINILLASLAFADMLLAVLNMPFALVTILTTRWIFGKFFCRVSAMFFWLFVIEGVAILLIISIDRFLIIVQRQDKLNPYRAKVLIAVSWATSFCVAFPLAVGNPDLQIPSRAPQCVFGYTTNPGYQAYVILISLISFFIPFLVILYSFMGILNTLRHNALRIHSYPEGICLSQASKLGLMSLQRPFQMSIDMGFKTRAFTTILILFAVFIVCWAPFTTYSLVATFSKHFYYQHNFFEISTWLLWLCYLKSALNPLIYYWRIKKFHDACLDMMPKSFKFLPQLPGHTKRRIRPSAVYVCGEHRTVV

Compound	more cells (cell number vs absence of S1P) [1]	Ca^2+ influx [2]
CCCCCCCCCCCCC/C=C/[C@@H](O)[C@@H](N)COP(=O)(O)O [S1P, sphingosine 1-phosphate]	about 20%	led to a measurable Ca^2+ influx
CCCCCCCCCCCCCCC[C@@H](O)[C@@H](N)COP(=O)(O)O [DHS1P, dihydrosphingosine 1-phosphate]		led to a measurable Ca^2+ influx
